Legend:
[1] = target: T1, Pyruvate kinase PKLR (Homo sapiens, UniProt P30613); assay: Inhibition of PKL (unknown origin) at 10 uM for 30 mins by Kinase-Glo Max reagent based luminescence assay
Target sequence in this assay (P30613 whole entry, looked up): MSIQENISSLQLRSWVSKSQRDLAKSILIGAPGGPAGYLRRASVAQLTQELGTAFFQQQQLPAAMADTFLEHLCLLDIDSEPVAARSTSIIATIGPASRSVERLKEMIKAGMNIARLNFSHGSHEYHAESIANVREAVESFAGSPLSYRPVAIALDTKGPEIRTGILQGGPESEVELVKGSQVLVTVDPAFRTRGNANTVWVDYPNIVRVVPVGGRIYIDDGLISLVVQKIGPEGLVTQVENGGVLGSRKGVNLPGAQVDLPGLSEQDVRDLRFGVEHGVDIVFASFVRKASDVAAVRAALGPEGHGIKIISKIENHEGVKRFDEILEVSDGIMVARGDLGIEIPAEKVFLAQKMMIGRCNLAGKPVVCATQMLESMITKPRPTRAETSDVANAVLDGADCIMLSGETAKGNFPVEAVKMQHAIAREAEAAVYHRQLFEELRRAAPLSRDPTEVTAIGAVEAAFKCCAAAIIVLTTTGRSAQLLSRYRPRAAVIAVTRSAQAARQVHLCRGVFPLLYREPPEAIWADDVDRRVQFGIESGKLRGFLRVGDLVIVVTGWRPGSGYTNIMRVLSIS

[2] = target: T1, Pyruvate kinase PKLR; assay: Inhibition of PKL (unknown origin) for 30 mins by Kinase-Glo Max reagent based luminescence assay
Target sequence in this assay (P30613 whole entry): as the sequence (P30613 whole entry, looked up) above

[3] = target: T1, Pyruvate kinase PKLR; assay: Inhibition of PKL in human PKM2 knockout HepG2 cells at 10 uM incubated for 5 mins by Microplate reader based analysis relative to control; format: cell-based
Target sequence in this assay (P30613 whole entry, looked up): as above

inhibition [1] [%] | IC50 [2] [nM] | inhibition [3] [%] | SMILES
31 |  |  | CS(=O)(=O)c1cccc(-c2cc3c(c(O)c2O)C(=O)c2ccccc2C3=O)c1
79 | 1300 | 79.3 | O=C(O)Cc1ccc(CNc2cc3c(c(O)c2O)C(=O)c2ccccc2C3=O)cc1C(=O)O
39 |  |  | O=C1c2ccccc2C(=O)c2c1cc(-c1ccc(O)cc1)c(O)c2O
101 | 7500 |  | O=C(O)CCCNS(=O)(=O)c1cc2c(c(O)c1O)C(=O)c1ccccc1C2=O
76 |  | 41.1 | O=C(O)Cc1ccc(CNc2cc3c(cc2O)C(=O)c2ccccc2C3=O)cc1
101 | 1200 |  | COC[C@H](NS(=O)(=O)c1cc2c(c(O)c1O)C(=O)c1ccccc1C2=O)C(=O)O
72 | 1900 |  | O=C(O)C[C@H](NC(=O)C1CCCN(S(=O)(=O)c2cc3c(c(O)c2O)C(=O)c2ccccc2C3=O)C1)C(=O)O (stereo not given in full)
-1 |  |  | O=C(O)CC(O)(CC(=O)N1CCN(C(=O)c2cc3c(c(O)c2O)C(=O)c2ccccc2C3=O)CC1)C(=O)O (stereo not given)
16 |  |  | O=C1c2ccccc2C(=O)c2c1cc(-c1ccc(O)c(O)c1)c(O)c2O
99 | 550 |  | O=C(O)CC[C@H](NC(=O)N1CCN(S(=O)(=O)c2cc3c(c(O)c2O)C(=O)c2ccccc2C3=O)CC1)C(=O)O
57 |  | 59.7 | O=C(O)CC(Nc1cc2c(cc1O)C(=O)c1ccccc1C2=O)C(=O)O (stereo not given)
77 |  |  | Nc1c(S(=O)(=O)O)cc2c(c1O)C(=O)c1ccccc1C2=O
66 |  |  | NS(=O)(=O)c1cccc(-c2cc3c(c(O)c2O)C(=O)c2ccccc2C3=O)c1
100 | 200 | 54 | O=C1c2ccccc2C(=O)c2c1cc(S(=O)(=O)O)c(O)c2O [Alizarin Red S]
99 | 290 |  | O=C(O)Cc1ccc(CNC(=O)N2CCN(S(=O)(=O)c3cc4c(c(O)c3O)C(=O)c3ccccc3C4=O)CC2)cc1C(=O)O
99 | 300 |  | O=C(O)Cc1ccc(CNS(=O)(=O)c2cc3c(c(O)c2O)C(=O)c2ccccc2C3=O)cc1C(=O)O
61 | 1700 | 34 | O=C(O)Cc1ccc(CNC(=O)Nc2cc3c(c(O)c2O)C(=O)c2ccccc2C3=O)cc1C(=O)O
78 | 1400 |  | CSCCC(NS(=O)(=O)c1cc2c(c(O)c1O)C(=O)c1ccccc1C2=O)C(=O)O (stereo not given)
92 | 700 |  | O=C(O)CNC(=O)CNC(=O)CNS(=O)(=O)c1cc2c(c(O)c1O)C(=O)c1ccccc1C2=O
51 |  |  | O=C1c2ccccc2C(=O)c2c1ccc(O)c2O
22 |  |  | O=C1c2ccccc2C(=O)c2c1cc(C(=O)N1CCNCC1)c(O)c2O
98 | 150 |  | O=C1c2ccccc2C(=O)c2c1cc(S(=O)(=O)N1CCNCC1)c(O)c2O
19 |  |  | COc1c(S(=O)(=O)O)cc2c(c1OC)C(=O)c1ccccc1C2=O
86 |  | 78.7 | O=C(O)CNS(=O)(=O)c1cc2c(cc1O)C(=O)c1ccccc1C2=O

inhibition [1] [%] | IC50 [2] [nM] | inhibition [3] [%] | SMILES
90 | 2500 | 83.5 | O=C(O)CC(Nc1cc2c(c(O)c1O)C(=O)c1ccccc1C2=O)C(=O)O (stereo not given)
94 |  | 50.2 | O=C(O)Cc1ccc(CNc2cc3c(cc2O)C(=O)c2ccccc2C3=O)cc1C(=O)O
27 |  |  | O=C1c2ccccc2C(=O)c2c1cc(S(=O)(=O)N1CCCC(C(=O)N[C@@H](Cc3c[nH]cn3)C(=O)O)C1)c(O)c2O (stereo not given in full)
94 | 1300 |  | O=C(O)CC[C@H](NC(=O)C1CCCN(S(=O)(=O)c2cc3c(c(O)c2O)C(=O)c2ccccc2C3=O)C1)C(=O)O (stereo not given in full)
92 | 160 |  | O=C1c2ccccc2C(=O)c2c1cc(S(=O)(=O)N1CCCC(C(=O)O)C1)c(O)c2O (stereo not given)
58 |  | 40.6 | O=C1c2ccccc2C(=O)c2cc(S(=O)(=O)N3CCCC(C(=O)O)C3)c(O)cc21 (stereo not given)
82 |  | 82.7 | O=C(O)CNc1cc2c(cc1O)C(=O)c1ccccc1C2=O
97 | 19000 |  | O=C(O)CCCCNS(=O)(=O)c1cc2c(c(O)c1O)C(=O)c1ccccc1C2=O
45 |  |  | O=C(O)CC[C@H](NC(=O)C1CCN(S(=O)(=O)c2cc3c(c(O)c2O)C(=O)c2ccccc2C3=O)CC1)C(=O)O
94 | 1400 |  | O=C(O)c1cc2c(c(O)c1O)C(=O)c1ccccc1C2=O
102 | 5800 |  | O=C(O)CCNS(=O)(=O)c1cc2c(c(O)c1O)C(=O)c1ccccc1C2=O
97 | 900 |  | O=C1c2ccccc2C(=O)c2c1cc(S(=O)(=O)N[C@@H](CO)C(=O)O)c(O)c2O
65 | 7300 |  | O=C1c2ccccc2C(=O)c2c(O)cc(S(=O)(=O)O)cc21
45 |  |  | O=C1c2ccccc2C(=O)c2cc(S(=O)(=O)O)ccc21
63 |  | 22.6 | O=C1c2ccccc2C(=O)c2cc(S(=O)(=O)N3CCN(C(=O)CC(O)(C(=O)O)C(=O)O)CC3)c(O)cc21
95 | 3400 |  | O=C1c2ccccc2C(=O)c2cc(S(=O)(=O)O)c(O)cc21
3 |  |  | O=C(O)CC(O)(CC(=O)N1CCN(S(=O)(=O)c2cc(O)c3c(c2)C(=O)c2ccccc2C3=O)CC1)C(=O)O (stereo not given)
102 | 4100 |  | O=C(O)CNC(=O)CNS(=O)(=O)c1cc2c(c(O)c1O)C(=O)c1ccccc1C2=O
100 | 200 |  | O=C(O)CC(O)(CC(=O)N1CCN(S(=O)(=O)c2cc3c(c(O)c2O)C(=O)c2ccccc2C3=O)CC1)C(=O)O (stereo not given)
35 |  |  | O=C(O)C[C@H](NC(=O)C1CCN(S(=O)(=O)c2cc3c(c(O)c2O)C(=O)c2ccccc2C3=O)CC1)C(=O)O
87 | 4800 |  | O=C1c2ccccc2C(=O)c2c1cc(S(=O)(=O)N1CCC(C(=O)O)CC1)c(O)c2O
96 | 3800 | 82.5 | O=C(O)Cc1ccc(CNc2cc3c(c(O)c2O)C(=O)c2ccccc2C3=O)cc1
100 | 200 |  | O=C(O)CNS(=O)(=O)c1cc2c(c(O)c1O)C(=O)c1ccccc1C2=O

Reference: ChEMBL document CHEMBL5131504, “Anthraquinone derivatives as ADP-competitive inhibitors of liver pyruvate kinase” (Eur J Med Chem, 2022)
